Measured values reported in patent US7456293B2, “Substituted carboxylic acid derivatives for the treatment of diabetes and lipid disorders, their preparation and use” (SK Holding Co., Ltd, priority 2005, dated 2008).
Marks after values point to notes of the source that are not given here. Blank lines part the entries; values can stand above or below the molecule they belong to.

Tests used:
[1] = system: db/db mice; assay: Efficacy test for blood glucose and plasma lipid lowering (db/db mice); format: in vivo; settings: male db/db mice, oral; for BG % max reduction d14 / Fatty Acid % max reduction d14 / Insulin % max reduction d14 / TG % max reduction d14: day 14, vs vehicle; for Insulin % max reduction d7: day 7, vs vehicle
Excerpt: Mice used in this study were standard model of type II diabetes developed by Jackson Laboratories (Bar Harbor, Me.). Mice (male, 8-wk-old db/db) were housed six per cage in hanging wire bottom cages with standard laboratory conditions. The mice had free access to normal chow (Purina Rodent Chow) and water. At the age of 8-10 weeks, the mice were bled from the tail for glucose matching among the groups (n=6 per group). To test the PPAR-γ effect of the compounds of Examples 1, 2, 3, 4 and 6, mice were then dosed orally with vehicle (CMC) or with two different concentrations (3 or 10 mg/kg/d) of each compound for 7-14 days. Each compound of Examples 1, 2, 3, 4 and 6 was dosed as suspension in 0.5% CMC+0.2% Tween 80 in sterile water. Fresh suspension was prepared for 8 days dosing and kept in a refrigerator. The suspension was administered orally by gavage daily in the morning. The control group received vehicle (dose 10 mL/kg). Blood glucose concentrations (in fed state) were monitored at basal and 3 h post dose on day 14 either by putting a drop of blood from tails on a glucose strip for analysis by a glucometer or using a 10 μL plasma sample in a YSI (Yellow Spring Instruments, OH) analyzer. […] The results are expressed in Table 2 as % maximal reduction that is achieved relative to vehicle treated control group. Animals having more than 300 mg/dL of blood glucose were used for testing. Statistical significance (* P<0.05; ** P<0.01) is given versus the appropriate sample in vehicle treated animals.

[2] = system: 3T3-L1 adipocytes; assay: Insulin-stimulated glucose uptake (2-deoxy-D-glucose) in differentiated 3T3-L1 adipocytes; format: cell-based
Excerpt: Adipocyte differentiation was then induced using standard protocol. […] The maintenance medium was changed every 3 days until the cells were utilized for experimentation. […] In each instance, the medium was changed twice a day. […]

[3] = target: T1, hPPAR-α (Homo sapiens, UniProt Q07869); assay: In vitro hPPAR-α transactivation (GAL4 fusion, SPRAT cells, luciferase); format: cell-based
T1 construct: expressed in transfected cells
T1 sequence (Q07869 239-466 limits assumed): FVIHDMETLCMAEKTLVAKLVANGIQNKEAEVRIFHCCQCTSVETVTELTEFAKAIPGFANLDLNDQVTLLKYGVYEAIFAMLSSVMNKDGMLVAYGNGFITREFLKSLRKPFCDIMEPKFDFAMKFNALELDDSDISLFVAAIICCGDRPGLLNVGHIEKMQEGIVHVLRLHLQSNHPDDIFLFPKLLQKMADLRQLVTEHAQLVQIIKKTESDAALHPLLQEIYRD

[4] = target: T2, hPPAR-γ (Homo sapiens, UniProt P37231); assay: In vitro hPPAR-γ transactivation (GAL4 fusion, SPRAT cells, luciferase); format: cell-based
T2 construct: expressed in transfected cells
T2 sequence (P37231 238-503 limits assumed): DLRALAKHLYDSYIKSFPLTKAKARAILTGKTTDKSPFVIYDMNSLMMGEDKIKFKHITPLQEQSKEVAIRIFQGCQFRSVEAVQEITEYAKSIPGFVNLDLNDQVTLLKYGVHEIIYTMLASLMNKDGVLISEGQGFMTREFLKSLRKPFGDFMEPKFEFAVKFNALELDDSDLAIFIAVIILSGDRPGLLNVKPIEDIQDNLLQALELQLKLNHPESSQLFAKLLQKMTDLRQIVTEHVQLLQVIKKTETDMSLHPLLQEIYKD

[5] = target: T3, hPPAR-δ (Homo sapiens, UniProt Q03181); assay: In vitro hPPAR-δ transactivation (GAL4 fusion, SPRAT cells, luciferase); format: cell-based; settings: for EC50: 6 hours, read-out: PPAR-δ EC50; for PPAR-δ % Max: relative to TTA = 100
T3 construct: expressed in transfected cells
T3 sequence (Q03181 211-439 limits assumed): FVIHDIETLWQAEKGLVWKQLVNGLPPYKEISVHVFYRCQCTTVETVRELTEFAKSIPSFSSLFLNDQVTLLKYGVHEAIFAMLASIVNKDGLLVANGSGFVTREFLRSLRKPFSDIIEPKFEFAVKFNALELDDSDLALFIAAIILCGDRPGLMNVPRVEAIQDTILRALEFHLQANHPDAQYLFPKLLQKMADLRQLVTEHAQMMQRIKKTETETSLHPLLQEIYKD

[6] = system: db/db mice; assay: Oral glucose tolerance test (OGTT) in db/db mice; format: in vivo
Procedure: OGTT was performed in db/db mice after dosing of either 3 or 10 mg/kg of the compound of Example 1 for 9 days. The animals were dosed with 10% glucose in water in a volume of 10 mL/kg. Blood samples were taken at 0, 30, 60 and 120 min post dose.

[7] = system: human ApoA1 transgenic mice; assay: Changes in plasma ApoA1, HDL cholesterol and TG levels (human ApoA1 transgenic mice); format: in vivo; settings: for ApoA1 % increase / HDL Cholesterol % increase / TG % decrease: oral, 8 days
Procedure: Homozygous human ApoA1 transgenic mouse strains (C57BL/6-TgN1Rub) were purchased from Jackson Laboratories (Bar Harbor, Me.). The mice were grouped by six and housed in hanging wire bottom cages with standard laboratory conditions. The mice had free access to normal chow (Purina Rodent Chow) and water. The grouped mice were then dosed orally with vehicle (CMC) or with different concentrations of the compound of Example 1 (3, 10 or 30 mg/kg/d) for 8 days. Compounds were dosed as suspension in 0.5% CMC+0.2% Tween 80 in sterile water. Fresh suspension was prepared for 8 days dosing and kept in a refrigerator. The suspension was administered orally by gavage daily in the morning. The control group received vehicle (dose 10 mL/kg). Blood samples were collected by cardiac puncture, centrifuged and analyzed for ApoA1, HDL cholesterol, and triglyceride.

[8] = system: high cholesterol-fed rats; assay: Changes in plasma lipid parameters (high cholesterol-fed rats); format: in vivo; settings: 10 mg/kg
Procedure: Blood was collected and analyzed for non-fasted total cholesterol and free fatty acid levels. The results are calculated as the percent reduction relative to vehicle control.

[9] = oral, 4 days, vs vehicle control

Structure (SMILES): CCOC(Cc1ccc(OCCn2c(C(F)(F)C(F)(F)F)nc3ccccc32)cc1)C(=O)O (stereo not drawn) [Example 2, 2-ethoxy-3-(4-{2-[2-(pentafluoroethyl)-1H-benzimidazol-1-yl]ethoxy}phenyl)propanoic acid]
BG % max reduction d14 ([1]; 3 mg/kg): 57** % | Fatty Acid % max reduction d14 ([1]; 3 mg/kg): 45** % | Insulin % max reduction d14 ([1]; 3 mg/kg): 59** (d14) % | TG % max reduction d14 ([1]; 3 mg/kg): 50** % | BG % max reduction d14 ([1]; 10 mg/kg): 75** % | Fatty Acid % max reduction d14 ([1]; 10 mg/kg): 71** % | Insulin % max reduction d14 ([1]; 10 mg/kg): 75** (d14) % | TG % max reduction d14 ([1]; 10 mg/kg): 70** %

EC50 ([3]; 6 hours, read-out: PPAR-α EC50): 17.2 µM | PPAR-α % Max ([3]; relative to Reference (α) = 100): 44% | EC50 ([4]; 6 hours, read-out: PPAR-γ EC50): 40 nM | PPAR-γ % Max ([4]; relative to Rosiglitazone = 100): 62% | EC50 [5]: 50 µM | PPAR-δ % Max [5]: 68%
Structure (SMILES): CCOC(Cc1ccc(OCCn2c(C(F)(F)F)nc3ccccc32)cc1)C(=O)O (racemic) [Example 1, 2-ethoxy-3-(4-{2-[2-(trifluoromethyl)-1H-benzimidazol-1-yl]ethoxy}phenyl)propanoic acid]
glucose transport activity ([2]; 1 μM compound in the presence of 100 nM insulin, 48 h, FIG. 1): significantly increased | glucose transport ([2]; separate treatment: 1 μM compound alone or 100 nM insulin alone, 48 h, 3T3-L1 adipocytes): increase in glucose transport | Insulin % max reduction d7 ([1]; 3 mg/kg): 85** (d7) % | BG % max reduction d14 ([1]; 3 mg/kg): 69** % | Fatty Acid % max reduction d14 ([1]; 3 mg/kg): 47** % | TG % max reduction d14 ([1]; 3 mg/kg): 52** % | Insulin % max reduction d7 ([1]; 10 mg/kg): 87** (d7) % | BG % max reduction d14 ([1]; 10 mg/kg): 73** % | Fatty Acid % max reduction d14 ([1]; 10 mg/kg): 72** % | TG % max reduction d14 ([1]; 10 mg/kg): 55** % | AUC for blood glucose, reduction vs vehicle control ([6]; 3 mg/kg for 9 days): 49% | AUC for blood glucose, reduction vs vehicle control ([6]; 10 mg/kg for 9 days): 48% | ApoA1 % increase ([7]; 3 mg/kg): 52% | HDL Cholesterol % increase ([7]; 3 mg/kg): 47* % | TG % decrease ([7]; 3 mg/kg): 52* % | ApoA1 % increase ([7]; 10 mg/kg): 137% | HDL Cholesterol % increase ([7]; 10 mg/kg): 73** % | TG % decrease ([7]; 10 mg/kg): 56** % | ApoA1 % increase ([7]; 30 mg/kg): 186% | HDL Cholesterol % increase ([7]; 30 mg/kg): 51** % | TG % decrease ([7]; 30 mg/kg): 67** % | HDL-cholesterol (in words) ([7]; through increase in human ApoA1 levels): greatly increased HDL-cholesterol | plasma total cholesterol and free fatty acid levels (in words) [8]: significantly reduced | Free Fatty Acid % reduction [8, 9]: 68** % | Total Cholesterol % reduction [8, 9]: 69** %

EC50 [5]: 38 µM | PPAR-δ % Max [5]: 100%
Structure (SMILES): CCCCCCCCCCCCCCSCC(=O)O [TTA (δ), reference compound]

Structure (SMILES): CCOC(Cc1ccc(OCCn2c(C(F)(F)F)nc3cc(F)ccc32)cc1)C(=O)O (stereo not drawn) [Example 4, 3-(4-{2-[5-fluoro-2-(trifluoromethyl)-1H-benzimidazol-1-yl]ethoxy}phenyl)-2-ethoxypropanoic acid]
BG % max reduction d14 ([1]; 3 mg/kg): 68** % | Fatty Acid % max reduction d14 ([1]; 3 mg/kg): 25** % | Insulin % max reduction d14 ([1]; 3 mg/kg): 79** (d14) % | TG % max reduction d14 ([1]; 3 mg/kg): 64** % | BG % max reduction d14 ([1]; 10 mg/kg): 73** % | Fatty Acid % max reduction d14 ([1]; 10 mg/kg): 27** % | Insulin % max reduction d14 ([1]; 10 mg/kg): 79** (d14) % | TG % max reduction d14 ([1]; 10 mg/kg): 58** %

Structure (SMILES): CCO[C@@H](Cc1ccc(OCCn2c(C(F)(F)F)nc3ccccc32)cc1)C(=O)O [Example 6, (2S)-3-{4-[2-(2-trifluoromethyl-benzoimidazol-1-yl)-ethoxy]-phenyl}-2-ethoxy-propionic acid]
insulin-stimulated glucose uptake, enantio-dependency ([2]; each enantiomer vs racemate, FIG. 2): statistically significant difference (P<0.01) over racemate | Insulin % max reduction d7 ([1]; 3 mg/kg): 87** (d7) % | BG % max reduction d14 ([1]; 3 mg/kg): 53** % | Fatty Acid % max reduction d14 ([1]; 3 mg/kg): 54** % | TG % max reduction d14 ([1]; 3 mg/kg): 62** % | Insulin % max reduction d7 ([1]; 10 mg/kg): 86** (d7) % | BG % max reduction d14 ([1]; 10 mg/kg): 73** % | Fatty Acid % max reduction d14 ([1]; 10 mg/kg): 60** % | TG % max reduction d14 ([1]; 10 mg/kg): 66** %

Structure (SMILES): CCOC(Cc1ccc(OCCn2c(C(F)(F)F)nc3cc(C(F)(F)F)ccc32)cc1)C(=O)O (stereo not drawn) [Example 3, 3-(4-{2-[2,5-bis(trifluoromethyl)-1H-benzimidazol-1-yl]ethoxy}phenyl)-2-ethoxypropanoic acid]
BG % max reduction d14 ([1]; 3 mg/kg): 77** % | Fatty Acid % max reduction d14 ([1]; 3 mg/kg): 49** % | Insulin % max reduction d14 ([1]; 3 mg/kg): 76** (d14) % | TG % max reduction d14 ([1]; 3 mg/kg): 61** % | BG % max reduction d14 ([1]; 10 mg/kg): 77** % | Fatty Acid % max reduction d14 ([1]; 10 mg/kg): 76** % | Insulin % max reduction d14 ([1]; 10 mg/kg): 79** (d14) % | TG % max reduction d14 ([1]; 10 mg/kg): 77** %
